Data: ChEMBL document CHEMBL1145757, “QSAR study on solubility of alkanes in water and their partition coefficients in different solvent systems using PI index” (Bioorg Med Chem Lett, 2003)
In brackets after ≈: the same amount, converted by molar mass.

Tests used:
physchem [1] = assay: physchem
Description: Solubility in water was determined; values expressed as -log

physchem [2] = details: octanol/water
Description: Partition coefficient (logP)

[3] = Partition coefficient in water-cyclohexane was determined; format: ADME
[4] = octanol/water
Description: Partition coefficient (logP)

[5] = water/hexadecane
Description: Partition coefficient in water-hexadecane (P16) was determined

[6] = water/alkane
Description: Partition coefficient in alkanes was determined

| solubility (physchem [1]; water) [µM] | logP (physchem [2]) | solubility (physchem [1]; buffer) [µM] | Log Pcyc [3] | logP [4] | Log P16 [5] | Structure (SMILES) | Log Palk [6] |
| --- | --- | --- | --- | --- | --- | --- | --- |
| 0.011 (≈ 0.00218 µg/mL) | 8 | – | – | – | – | CCCCCCCCCCCCCC | – |
| – | – | 2690 (≈ 156 µg/mL) | 3.62 | 2.89 | – | CCCC [BUTANE] | – |
| 0.105 (≈ 0.0149 µg/mL) | 6.34 | – | – | – | 7.01 | CCCCCCCCCC [DECANE] | – |
| – | – | 0.0214 (≈ 0.00364 µg/mL) | – | – | – | CCCCCCCCCCCC [DODECANE] | – |
| 29.5 (≈ 2.96 µg/mL) | 4.5 | – | – | – | 5.14 | CCCCCCC [HEPTANE] | – |
| 0.00398 (≈ 0.000902 µg/mL) | – | – | – | 9.57 | – | CCCCCCCCCCCCCCCC [HEXADECANE] | – |
| – | – | – | 1.33 | – | 1.14 | C [METHANE] | 1.37 |
| – | 5.65 | 1.32 (≈ 0.169 µg/mL) | – | – | 6.49 | CCCCCCCCC [NONANE] | – |
| 5.75 (≈ 0.657 µg/mL) | 5.15 | – | – | – | 5.79 | CCCCCCCC [OCTANE] | – |

| Structure (SMILES) | solubility (physchem [1]; water) [µM] | logP (physchem [2]) | solubility (physchem [1]; buffer) [µM] | Log Pcyc [3] | logP [4] | Log P16 [5] | Log Palk [6] |
| --- | --- | --- | --- | --- | --- | --- | --- |
| CCCCCC [HEXANE] | – | – | 145 (≈ 12.5 µg/mL) | – | 3.9 | – | – |
| CCCCC [PENTANE] | 661 (≈ 47.7 µg/mL) | – | – | 4.27 | – | 3.87 | 4.06 |
